# According to a melting point compilation (Tetko et al.; mined from patent text by program, amines drawn as free bases though some values may be those of a salt):
row,SMILES,melting point [°C]
1,Cc1ccc2c(Br)c(Cl)cc([N+](=O)[O-])c2n1,141 to 142
2,CC(C)Nc1ncnc2sc([N+](=O)[O-])cc12,200
3,CC(C)(C)OC(=O)N1CCC(=O)N1c1ccccc1,150
4,CCOC(=O)[C@H]1CCc2ccc(O)cc2O1,77 to 78
5,CCOC(=O)c1cnc2c(c(C)nc3cc(C)nn32)c1NC,208 to 210
6,N=C(N)NCCOc1ccc2c(c1)NC(=O)C(CCC(=O)O)C2 (stereo not drawn),193 to 196
7,CC(CCC(O)C(C)(C)O)C1CCC2C3=CC=C4CC(O)CCC4(C)C3CCC21C (stereo not drawn),216 to 218
8,COc1cc(C)c(CC(=O)O)cc1C(C)C,107 to 109
9,CC(C)c1c(Cl)nc(OCc2ccccc2)nc1OCc1ccccc1,77 to 78
10,Cc1cc(-c2cc(C(F)(F)F)n3cnc(-c4ccncc4)c3n2)ccc1C(F)(F)F,225
11,O=C(Nc1ccc(-c2c[nH]c(=O)cn2)cc1)c1ccc([N+](=O)[O-])cc1,298 to 300
12,C=Cc1nnc2ccc3ccccc3n12,117 to 118
13,O=C1N(Cc2ccc(C(F)(F)F)o2)c2cc3c(cc2C12COc1cc4c(cc12)CCO4)OCCO3 (stereo not drawn),189 to 191
14,CN(C(=O)CC(CCN1CCC(Cc2ccccc2)CC1)c1ccc(Cl)c(Cl)c1)c1ccc(Cl)cc1 (stereo not drawn),67 to 72
15,Cc1ccc(CC(=O)O)c(OCc2ccc(OCc3nc(-c4ccccc4)oc3C)cc2)n1,138 to 139
16,Cc1oc(-c2ccc(F)cc2)nc1CCOc1ccc(CN(O)C(N)=O)cc1,158 to 160
17,O=C1N(Nc2ccccc2)C(=S)OC12c1ccccc1-c1ccccc12,187 to 189
18,CCCc1nc2c(N)nc3ccc(-c4cccc(S(C)(=O)=O)c4)cc3c2s1,252 to 255
19,O=c1[nH]c2ncc(-c3ccc(-c4cn[nH]c4)cc3)nc2n1CC1CCCCC1,305 to 307
20,COC(=O)c1nc2cc(Cn3ccnc3)ccc2[nH]1,228
21,C[C@H](C#Cc1ccc(Cc2ccc3ccccc3c2)s1)N(O)C(N)=O,134 to 135
22,CC1(C)OC(=O)C(=C2NCCN2)C(=O)O1,181 to 182
23,CC1NC(=O)NN=C1c1ccc(NCCCN)cc1 (stereo not drawn),178 to 179
24,O=C(O)CCCc1cc2nc(Cl)ccc2n1S(=O)(=O)c1cc(Cl)ccc1Cl,86 to 89
25,CCc1nn(CCO)c(N)c1Cc1cc(Cl)cc(Cl)c1,135
26,O=C1Nc2cc(CN3CC=C(c4ccc(Cl)cc4)CC3)cnc2N2CCCCC12 (stereo not drawn),202

row,SMILES,melting point [°C]
1,Cc1c(C)n2nnnc2c2nc(C)n(CCNS(C)(=O)=O)c12,> 250
2,NS(=O)(=O)Nc1ccc(N2CCN(c3ccncc3)CC2)cc1,216 to 219
3,CCSc1nc(C#N)c(C#N)nc1Cl,55 to 58.5
4,O=C(O)Cc1cccc(-c2ccccc2OC2OC(CO)C(O)C(O)C2O)c1 (stereo not drawn),85 to 86
5,ClC(=NNc1cc(Cl)ccc1Cl)c1ccccc1,84.5 to 86
6,C=Cc1c(C)c2cc3nc(c4c5[nH]c(cc6nc(cc1[nH]2)C(C)=C6CC)c(C)c5C(=O)C4)C(CCC(=O)OC)C3C (stereo not drawn),217 to 219
7,CC(=O)N1CCC(O)(C(=O)c2cc(F)ccc2F)CC1,118 to 120
8,O=C(O)CCCC(=O)c1ccc2c(c1)CCO2,131 to 133
9,CCC(OC(C)=O)c1nc2c(C(F)(F)F)cccc2c(O)c1C(=O)Nc1nccs1 (stereo not drawn),245
10,CC(=O)NC1CCN(CCC2CCOc3ccccc32)CC1 (stereo not drawn),126 to 128
11,CC(=O)NC[C@H]1CN(c2ccc(C(=O)c3cnc4cnc(Br)cn34)cc2)C(=O)O1,216 to 220
12,N=C(NO)c1nn(-c2c(Cl)cc(C(F)(F)F)cc2Cl)c(C=NO)c1SC(F)(F)F,68 to 72
13,Cc1cscc1-c1nc(-c2c(F)cccc2Cl)nn1C,153 to 155
14,CC(C)(CCCCCCCCCCOCc1ccccc1)C(=O)O,53 to 55
15,Cc1ccccc1C(=O)Nc1ccc(C(=O)N2Cc3ccccc3Cc3ccccc32)c(Cl)c1,138 to 150
16,CCO[C@@H](Cc1ccc(OCCc2nc(-c3ccc(C(F)(F)F)cc3)oc2C)c2ccsc12)C(=O)O,126 to 128
17,COc1ccc(N(N)c2cc(Cl)nc(Cl)n2)cc1,113 to 115
18,CC(C)(COc1ccccc1C1NC(C(=O)O)CS1)CO[N+](=O)[O-] (stereo not drawn),105 to 108
19,COc1cc(OCc2ccncc2)ccc1/C=C/c1cc(/C=C/c2cccc3[nH]ccc23)n[nH]1,207 to 215
20,CC(C)(C)OC(=O)NCCOc1noc2c(C#N)cccc12,91 to 92
21,CCOC(=O)c1c(Nc2cccc(SC)c2)n[nH]c1C,192 to 194
22,Cc1nn(-c2ccc(F)cc2)cc1C(=O)N(C)c1ccc(OCC(C)(C)C)c(C#N)c1,65 to 69
23,O=C(O)Cc1c(C(=O)c2ncc[nH]2)[nH]c2ccc(Cl)cc12,253 to 254
24,N#Cc1cccnc1N1CCN(CC(=O)Nc2cccc(C(F)(F)F)c2F)CC1,118 to 121
25,O=C(O)CCCCc1cc2cc(Cl)ccc2n1S(=O)(=O)c1ccccc1,144 to 148
26,CCC(CC)(CC)C(=O)O[C@H]1CCC=C2C=C[C@H](C)[C@H](CC[C@@H]3C[C@@H](O)CC(=O)O3)[C@H]21,65 to 68

row,SMILES,melting point [°C]
1,CN1C(=O)CN(c2ccccc2)NC1=O,207 to 213
2,COc1nc2c(s1)C(=O)N(C(C)(C)C)C2=O,63 to 66
3,CC(C)c1cccc(C(C)C)c1NC(=O)[C@H](Cc1ccccc1)NC(=O)OCC1c2ccccc2-c2ccccc21,210 to 212
4,CCN(CC)CCC(=O)Nc1ccc(NC(=O)Nc2ccc(N(CCCl)CCCl)cc2)cc1,178 to 179
5,Oc1ccc(CSSCc2ccc(O)cc2)cc1,171
6,COCOc1cc(OC)ccc1C(=O)O,96 to 97
7,CCOC(=O)NC(Cc1ccccc1)c1ccccc1 (stereo not drawn),74 to 75
8,COc1ccc(C2C(=O)N(c3ccccc3)N(c3ccccc3)C2=O)cc1,184 to 185
9,Cc1coc2c(C(=O)c3cccs3)cc(C(C)(C)C)c(O)c12,145
10,O=C(Nc1cccc2c1C(=O)c1c-2n[nH]c1-c1ccc(C(=O)N2CCC(N3CCCC3)CC2)s1)NN1CCOCC1,228
11,Cc1nnc(Cl)c2cc3n(c12)CCCC3,272 to 274
12,COC(=O)CC1CCN(CCC=C2c3ccccc3OCOc3ccccc32)C1 (stereo not drawn),70 to 90
13,O=C(O)c1csnc1-c1cc(C(F)(F)F)cc(C(F)(F)F)c1,151 to 154
14,COc1cc2nc(C(N)=O)sc2cc1OC,211 to 212
15,O=S1(=O)N=CN(C2CC2)c2ccc(F)c(Cl)c21,260 to 263
16,O=C(Nc1ccc(C(F)(F)F)cc1)N1CCC2Cc3ccccc3C2=N1 (stereo not drawn),122 to 124
17,CCOC(=O)c1ccc(OCCc2c[nH]cn2)cc1,160 to 164
18,O=C(c1ccccc1)N1CC2CSCC(C2)C1,95 to 96
19,O=C1CCC(N2Cc3cc(CNC(=O)Nc4ccc(Cl)c(Cl)c4)ccc3C2=O)C(=O)N1 (stereo not drawn),238 to 240
20,CC1(C)CC(OC(=O)CCCCCCCCC(=O)OC2CC(C)(C)N(O)C(C)(C)C2)CC(C)(C)N1O,101
21,"CC(=O)NCC1CC(c2cc(F)c(N3CCN(C(=O)CO)CC3)c(F)c2)=NO1 (single isomer, unassigned; (-))",220 to 221
22,Cc1ncccc1COc1ccc(Cn2cc(CCC(=O)O)c(-c3ccccc3)c2)cc1,158 to 159
23,CCc1cnc2c(NC(=O)c3c(Cl)cccc3Cl)cccc2c1/C=C/C(N)=O,> 250
24,O=C1C(c2ccc3c(c2)OCO3)c2ccccc2N1Cc1ccc(Cl)cc1 (stereo not drawn),161 to 163
25,NC(=O)NC1CCCCCC1,203 to 204
26,COc1ccc(N(C(=O)F)C(=O)Cl)cc1Cl,124 to 127

row,SMILES,melting point [°C]
1,COc1ccc(C2(c3cccc(-c4ccncc4)c3)N=C(N)N(C)C2=O)cc1C (stereo not drawn),175
2,CC(=O)N1CCOc2ccc(C3=NNC(=O)CC3C)cc21 (stereo not drawn),186
3,CCCCCC(=O)N1C(=O)CC[C@H]1C(=O)O,85 to 90
4,Cc1c([N+](=O)[O-])ccc2c1CCN2,169 to 171
5,O=c1ccc(CO)c[nH]1,130
6,NC(=O)N(O)CC#Cc1cccc(Oc2cccnc2)c1,107 to 110
7,COc1cccc2c(=O)c3cccc(OC)c3sc12,248 to 250
8,COC(=O)C(=O)c1cc(OC)c(O)c([N+](=O)[O-])c1,155 to 157
9,CCOC(=O)Cn1c2cccccc-2c(C(N)=O)c1=O,215 to 220
10,COc1ccc(-c2nc(-c3ccc4c(c3)CCCN4C(C)=O)cs2)cc1OC,148
11,COc1cc2c(cc1Nc1ncc(Cl)c(NC3(C(=O)OC(C)C)CCCC3)n1)CCN(CC(=O)N(C)C)CC2,65 to 70
12,Cc1cc(C)c2c(c1)Cc1ccccc1S2(=O)=O,103 to 105
13,CSc1ccc(CC(=O)O)cc1Cl,106 to 108
14,COC(=O)c1cc(OC)c(Cc2c(N)nc(N)nc2Cl)c(OC)c1,228 to 229
15,O=C(CNc1ccccc1)Nc1ccccc1C(=O)O,192 to 193
16,CCOC(=O)c1cc2oc3c(n2n1)CCCC3,55 to 57
17,Cc1ccc(NN)c2c1CC(C)O2 (stereo not drawn),90 to 92
18,CCOC(=O)C(=O)Nc1ccc(Cl)cc1[N+](=O)[O-],156 to 157
19,CCOCCOc1ccc(CCNC(=O)c2cnc3ccccc3c2)cc1S(=O)(=O)NC(=S)NC,88 to 91
20,COc1ccc2c3c(c(=O)oc2c1)CNCC3,171 to 180
21,CCCCCCCCC=CCCCCCCCCCCCC(=O)NC(=O)CN,128 to 130
22,COCc1c(C(=O)OC(C)C)ncc2[nH]c3cccc(OCc4ccccc4)c3c12,173 to 174
23,CCn1cc(CN(C(=O)C2CCc3ccccc32)c2ccc(C(C)C)cc2)cn1 (stereo not drawn),83 to 84
24,O=C(NCCCN1CCN(c2ccccc2OCC(F)(F)F)CC1)c1csc2c(=O)cc(-c3ccccc3)oc12,152 to 158
25,CCCn1nc(C2CC2)c(C(=O)OCC)c1Cc1ccc(-c2ccccc2S(N)(=O)=O)cc1,70 to 77
